Measurements published in patent US10092547B2, “Substituted aliphanes, cyclophanes, heteraphanes, heterophanes, hetero- heteraphanes and metallocenes useful for treating HCV infections” (priority 2011, dated 2018).

Test system: HCV replicon (NS5A1b) in Huh-7 cells
Assay: microbe, parasite or virus in culture
Type: cell-based
Settings: Hepatitis C virus, 72 h; NS5A1b; HCV replicon-containing Huh-7 cells, three days; read-out: EC50 (μM) NS5A1b
Method: Compounds claimed herein are tested for the ability to inhibit viral replication of the Hepatitis C replicon in cultured cells in which the HCV replicon construct has been incorporated. The HCV replicon system was described by Bartenschlager, et. al (Science, 285, pp. 110-113 (1999)). The replicon system is predictive of in vivo anti-HCV activity; compounds that are active in humans uniformly evidence activity in the replicon assay.
In this assay HCV replicon containing cells are treated with different concentrations of the test compound to ascertain the ability of the test compound to suppress replication of the HCV replicon. As a positive control, HCV replicon-containing cells are treated with different concentrations of interferon alpha, a known inhibitor of HCV replication. The replicon assay system includes Neomycin Phosphotransferase (NPT) as a component of the replicon itself in order to detect the transcription of replicon gene products in the host cell. Cells in which the HCV replicon is actively replicating have high levels of NPT; the level of NPT is proportional to HCV replication. […] The NPT level of each sample is measured using a captured ELISA.
A protocol for testing compounds for the ability to inhibit viral replication of the Hepatitis C replicon cultured cells in which the replicon construct has been incorporated, follows.
The HCV replicon contains, 5′-3′, the HCV-IRES, the neomycin phosphotransferase (neo) gene, the IRES of encephalomyocarditis virus, which directs translation of HCV sequences NS3 to NS5B, and the 3′-NTR. The sequence of the HCV replicon has been deposited in GenBank (Accession no. AJ242652).
The replicon is transfected into Huh-7 cells using standard methods such as electroporation.
The equipment and materials include, but are not limited to, Huh-7 HCV replicon-containing cells, maintenance media (DMEM (Dulbecco's modified Eagle media) supplemented with 10% FBS, L-glutamine, non-essential amino acids, penicillin (100 units/ml), streptomycin (100 micrograms/ml), and 500 micrograms/ml of Geneticin (G418), screening media (DMEM supplemented with 10% FBS, L-glutamine, non-essential amino acids, penicillin (100 units/ml) and streptomycin (100 micrograms/ml), 96 well tissue culture plates (flat bottom), 96 well plates (U bottom for drug dilution), Interferon alpha for positive control, fixation reagent (such as methanol: acetone), primary antibody (rabbit anti-NPTII), secondary antibody: Eu-N1 1, and enhancement solution.
HCV replicon-containing cells support high levels of viral RNA replicon replication when their density is suitable. Over-confluency causes decreased viral RNA replication. Therefore, cells must be kept growing in log phase in the presence of 500 micrograms/ml of G418. Generally, cells should be passed twice a week at 1:4-6 dilution. Cell maintenance is conducted as follows:
HCV replicon-containing cells are examined under a microscope to ensure that cells growing well. Cells are rinsed once with PBS and 2 ml trypsin is added. The cell/trypsin mixture is incubated at 37° C. in a CO2 incubator for 3-5 minutes. After incubation 10 ml of complete media is added to stop the trypsinization reaction. Cells are blown gently, put into a 15 ml tube, and spun at 1200 rpm for 4 minutes. The trypsin/medium solution is removed. Medium (5 ml) is added and the cells are mixed carefully. The cells are counted.
The cells are then seeded onto 96-well plates at a density of 6000-7500 cells/100 microliters/well (6-7.5×10^5 cells/10 ml/plate). The plates are then incubated at 37° C. in a 5% CO2 incubator.
Cells are examined under a microscope approximated 24 hours after seeding and prior to adding drugs. If counting and dilution were performed correctly, cells are 60-70% confluent and nearly all cells should attach and spread evenly in the well.
HCV replicon-containing cells are rinsed with once PBS once; 2 mls of trypsin are then added. Cells are incubated at 37° C. in a 5% CO2 incubator for 3-5 minutes. […]

Row | Compound | EC50 [nM]
1 | COC(=O)N1CCC[C@H]1C(=O)N1CCC[C@H]1c1nc(-c2ccc(-c3cc4ccc3CCc3ccc(c(-c5ccc(-c6c[nH]c([C@@H]7CCCN7C(=O)[C@@H]7CCCN7C(=O)OC)n6)cc5)c3)CC4)cc2)c[nH]1 [Compound 54] | > 1000
2 | C=CCOC(=O)N[C@H](C(=O)N1CCC[C@H]1c1nc(-c2ccc(-c3cc4ccc3CCc3ccc(c(-c5ccc(-c6c[nH]c([C@@H]7CCCN7C(=O)[C@@H](NC(=O)OCC=C)c7ccccc7)n6)cc5)c3)CC4)cc2)c[nH]1)c1ccccc1 [Compound 59] | 548
3 | COC(=O)N[C@@H](CCSC)C(=O)N1CCC[C@H]1c1nc(-c2ccc(-c3cc4ccc3CCc3ccc(c(-c5ccc(-c6c[nH]c([C@@H]7CCCN7C(=O)[C@H](CCSC)NC(=O)OC)n6)cc5)c3)CC4)cc2)c[nH]1 [Compound 53] | 211
4 | COC(=O)N[C@@H](CCSC)C(=O)N1[C@H](c2nc(-c3ccc(-c4cc5ccc4CCc4ccc(c(-c6ccc(-c7c[nH]c([C@@H]8C[C@@H]9CCCC[C@@H]9N8C(=O)[C@H](CCSC)NC(=O)OC)n7)cc6)c4)CC5)cc3)c[nH]2)C[C@@H]2CCCC[C@@H]21 [Compound 61] | 75.2
5 | COC(=O)N[C@H](C(=O)N1[C@H](c2nc3cc(-c4cc5ccc4CCc4ccc(c(-c6ccc7[nH]c([C@@H]8C[C@@H]9CCCC[C@@H]9N8C(=O)[C@@H](NC(=O)OC)C(C)C)nc7c6)c4)CC5)ccc3[nH]2)C[C@@H]2CCCC[C@@H]21)C(C)C [Compound 43] | 2.85
6 | COC(=O)N[C@H](C(=O)N1[C@H](c2nc3cc(-c4cc5ccc4CCc4ccc(c(-c6ccc7[nH]c([C@@H]8C[C@@H]9CCCC[C@@H]9N8C(=O)[C@@H](NC(=O)OC)[C@@H](C)OC)nc7c6)c4)CC5)ccc3[nH]2)C[C@@H]2CCCC[C@@H]21)[C@@H](C)OC [Compound 111] | 0.005
7 | COC(=O)N1CCC[C@H]1C(=O)N1[C@H](c2nc(-c3ccc(-c4cc5ccc4CCc4ccc(c(-c6ccc(-c7c[nH]c([C@@H]8C[C@@H]9CCCC[C@@H]9N8C(=O)[C@@H]8CCCN8C(=O)OC)n7)cc6)c4)CC5)cc3)c[nH]2)C[C@@H]2CCCC[C@@H]21 [Compound 63] | 899
8 | COC(=O)N[C@H](C(=O)N1CCC[C@H]1c1nc(-c2ccc(-c3cc4ccc3CCc3ccc(c(-c5c[nH]c([C@@H]6CCCN6C(=O)[C@@H](NC(=O)OC)C(C)C)n5)c3)CC4)cc2)c[nH]1)C(C)C [Compound 47] | 5.02
9 | C=CCOC(=O)N[C@H](C(=O)N1CCC[C@H]1c1nc(-c2ccc(-c3cc4ccc3CCc3ccc(c(-c5ccc(-c6c[nH]c([C@@H]7CCCN7C(=O)[C@@H](NC(=O)OCC=C)C(C)C)n6)cc5)c3)CC4)cc2)c[nH]1)C(C)C [Compound 55] | > 1000
10 | COC(=O)N[C@H](C(=O)N1[C@H](c2nc(-c3ccc(-c4cc5ccc4CCc4ccc(c(-c6ccc(-c7c[nH]c([C@@H]8C[C@@H]9CCCC[C@@H]9N8C(=O)[C@@H](NC(=O)OC)c8ccccc8)n7)cc6)c4)CC5)cc3)c[nH]2)C[C@@H]2CCCC[C@@H]21)c1ccccc1 [Compound 62] | 75
11 | COC(=O)N[C@H](C(=O)N1CCC[C@H]1c1nc(-c2ccc(-c3cc4ccc3CCc3ccc(c(-c5ccc(-c6c[nH]c([C@@H]7CCCN7C(=O)[C@@H](NC(=O)OC)c7ccccc7)n6)cc5)c3)CC4)cc2)c[nH]1)c1ccccc1 [Compound 52] | 9.83
12 | COC(=O)N[C@H](C(=O)N1CCC[C@H]1c1nc2cc(-c3cc4ccc3CCc3ccc(c(-c5ccc6[nH]c([C@@H]7CCCN7C(=O)[C@@H](NC(=O)OC)C(C)C)nc6c5)c3)CC4)ccc2[nH]1)C(C)C [Compound 45] | < 3.2
13 | COC(=O)N[C@H](C(=O)N1C[C@H](C)C[C@H]1c1nc2cc(-c3cc4ccc3CCc3ccc(c(-c5ccc6[nH]c([C@@H]7C[C@@H](C)CN7C(=O)[C@@H](NC(=O)OC)C(C)C)nc6c5)c3)CC4)ccc2[nH]1)C(C)C [Compound 66] | 0.005
14 | COC(=O)N[C@H](C(=O)N1CCC[C@H]1c1ncc(-c2ccc(C34CC(c5ccc(-c6cnc([C@@H]7CCCN7C(=O)[C@@H](NC(=O)OC)C(C)C)[nH]6)cc5)(C3)C4)cc2)[nH]1)C(C)C [Compound 44] | 4.08
15 | COC(=O)N[C@H](C(=O)N1[C@H](c2nc(-c3ccc(-c4cc5ccc4CCc4ccc(c(-c6ccc(-c7c[nH]c([C@@H]8C[C@@H]9CCCC[C@@H]9N8C(=O)[C@@H](NC(=O)OC)C(C)C)n7)cc6)c4)CC5)cc3)c[nH]2)C[C@@H]2CCCC[C@@H]21)C(C)C [Compound 60] | 128
16 | COC(=O)N[C@@H](CCC#N)C(=O)N1[C@H](c2nc3cc(-c4cc5ccc4CCc4ccc(c(-c6ccc7[nH]c([C@@H]8C[C@@H]9CCCC[C@@H]9N8C(=O)[C@H](CCC#N)NC(=O)OC)nc7c6)c4)CC5)ccc3[nH]2)C[C@@H]2CCCC[C@@H]21 [Compound 110] | 0.006
17 | COC(=O)N[C@H](C(=O)N1[C@H](c2nc3cc(-c4cc5ccc4CCc4ccc(c(-c6ccc7[nH]c([C@@H]8C[C@@H]9CCCC[C@@H]9N8C(=O)[C@@H](NC(=O)OC)[C@@H](C)O)nc7c6)c4)CC5)ccc3[nH]2)C[C@@H]2CCCC[C@@H]21)[C@@H](C)O [Compound 128] | 0.008
18 | COC(=O)N[C@@H](CCSC)C(=O)N1CCC[C@H]1c1nc2cc(-c3cc4ccc3CCc3ccc(c(-c5ccc6[nH]c([C@@H]7CCCN7C(=O)[C@H](CCSC)NC(=O)OC)nc6c5)c3)CC4)ccc2[nH]1 [Compound 50] | 8.41
19 | COC(=O)N1CCC[C@H]1C(=O)N1CCC[C@H]1c1nc2cc(-c3cc4ccc3CCc3ccc(c(-c5ccc6[nH]c([C@@H]7CCCN7C(=O)[C@@H]7CCCN7C(=O)OC)nc6c5)c3)CC4)ccc2[nH]1 [Compound 51] | > 1000
20 | COC(=O)N[C@H](C(=O)N1CCC[C@H]1c1nc(-c2ccc(-c3cc4c(-c5c[nH]c([C@@H]6CCCN6C(=O)[C@@H](NC(=O)OC)C(C)C)n5)cc3CCc3ccc(cc3)CC4)cc2)c[nH]1)C(C)C [Compound 46] | < 3.17
21 | COC(=O)N[C@H](C(=O)N1C(c2nc3ccc(-c4cc5ccc4CCc4ccc(c(-c6ccc7nc(C8C[C@@H]9CCCC[C@@H]9N8C(=O)[C@@H](NC(=O)OC)C(C)C)n(COC(=O)[C@@H](N)C(C)C)c7c6)c4)CC5)cc3n2COC(=O)[C@@H](N)C(C)C)C[C@@H]2CCCC[C@@H]21)C(C)C (stereo partly drawn) [Compound 130] | 0.009
22 | COC(=O)N[C@H](C(=O)N1CCC[C@H]1c1nc(-c2ccc(-c3cc4ccc3CCc3ccc(c(-c5ccc(-c6c[nH]c([C@@H]7CCCN7C(=O)[C@@H](NC(=O)OC)C(C)C)n6)cc5)c3)CC4)cc2)c[nH]1)C(C)C [Compound 40] | 0.012
23 | C=CCOC(=O)N[C@@H](CCSC)C(=O)N1CCC[C@H]1c1nc(-c2ccc(-c3cc4ccc3CCc3ccc(c(-c5ccc(-c6c[nH]c([C@@H]7CCCN7C(=O)[C@H](CCSC)NC(=O)OCC=C)n6)cc5)c3)CC4)cc2)c[nH]1 [Compound 57] | > 1000
24 | C=CCOC(=O)N1CCC[C@H]1C(=O)N1CCC[C@H]1c1nc(-c2ccc(-c3cc4ccc3CCc3ccc(c(-c5ccc(-c6c[nH]c([C@@H]7CCCN7C(=O)[C@@H]7CCCN7C(=O)OCC=C)n6)cc5)c3)CC4)cc2)c[nH]1 [Compound 58] | > 1000

Same assay, conditions: Hepatitis C virus, Huh-7; Example 9 replicon assay; read-out: EC50 values in HCV replicon assay

Row | Compound | EC50 [nM]
25 | CC(C)(C)OC(=O)Nc1ccc(B2OC(C)(C)C(C)(C)O2)cc1NC(=O)OC(C)(C)C [Compound 25, di-tert-butyl (4-(4,4,5,5-tetramethyl-1,3,2-dioxaborolan-2-yl)-1,2-phenylene)dicarbamate] | ≤ 10000
26 | CC(C)(C)OC(=O)N1[C@H](c2nc3ccc(B4OC(C)(C)C(C)(C)O4)cc3[nH]2)C[C@@H]2CCCC[C@@H]21 [Compound 16, (2S,3aS,7aS)-tert-butyl 2-(6-(4,4,5,5-tetramethyl-1,3,2-dioxaborolan-2-yl)-1H-benzo[d]imidazol-2-yl)octahydro-1H-indole-1-carboxylate] | ≤ 10000
27 | COC(=O)N[C@H](C(=O)N1CCC[C@H]1c1nc(-c2ccc(-c3cc4ccc3CCc3ccc(c(-c5ccc(-c6c[nH]c([C@@H]7CCCN7C(=O)[C@@H](NC(=O)OC)C(C)C)n6)cc5)c3)CC4)cc2)c[nH]1)C(C)C [Compound 40] | ≤ 10000
